Experimental data taken from article PMC6758725, “Novel 4-arylaminoquinazolines bearing N,N-diethyl(aminoethyl)amino moiety with antitumour activity as EGFR^wt-TK inhibitor” (Journal of Enzyme Inhibition and Medicinal Chemistry, 2019).
Like-named read-outs stand apart in the source and are kept apart here.

Key:
[1] = tested on: A549 cells; assay: MTT antiproliferative assay, A549 cells; format: cell-based; settings: Homo sapiens, read-out: IC50 (µM) A549
Description: (§1) Methyl thiazolyl tetrazolium (MTT) colorimetric assay (MTT assay)[17]^,[20] was used to evaluated the antiproliferative activities of these novel compounds against four human tumour cell lines including SW480, A549, A431 and NCI-H1975.
(§2) Figure 2. […] (A) SW480 cells, (B) A549 cells, (C) A431 cells, (D) NCI-H1975 cells. […] All error bars were represented in mean ± SE.
(§3) The effect of compounds on cell proliferation was determined using the MTT (3–(4,5-dimethylthiazol-2-yl)-2,5-diphenyltetrazolium bromide) method, which was carried out as previously described[12]^,[16].

[2] = tested on: NCI-H1975 cells; assay: MTT antiproliferative assay, NCI-H1975 cells; format: cell-based; settings: Homo sapiens, read-out: IC50 (µM) NCI-H1975
Description: as §1, §2, §3

[3] = tested on: A431 cells; assay: MTT antiproliferative assay, A431 cells; format: cell-based; settings: Homo sapiens, read-out: IC50 (µM) A431
Description: as §1, §2, §3

[4] = tested on: SW480 cells; assay: MTT antiproliferative assay, SW480 cells; format: cell-based; settings: Homo sapiens, read-out: IC50 (µM) SW480
Description: as §1, §2, §3

[5] = tested on: A549 cells; assay: Cell cycle analysis (PI, flow cytometry); format: cell-based, human; settings: 48 h; for percentage of cells in G0/G1 phase: untreated 51.97%
Text: Figure 5. Effect of compound 6a on the cell cycle phase distribution in A549 cells. (A) Representative profiles were obtained by FACS, (B) histograms of percentages of percentages of cell populations in the G0/G1, S and G2/M phase in each group from (A) analysed by GraphPad Prism5. […] Percentage of cells in G0/G1, S and G2/M phases were indicated. All values were expressed as mean ± SE. *p < .05, **p < .01 and ***p < .001 indicate significant differences compared with the control at the same phase.
Following treatment with different concentrations of compound 6a, the distribution of cell cycle was measured using cell cycle detection kit (KeyGEN BioTECH, Nanjing, China), according to the manufacturer’s instructions. The cell cycle of the treated cells was then detected by flow cytometry using ACEA NovoCyte.

[6] = biological target: wild type epidermal growth factor receptor tyrosine kinase (EGFR^wt-TK) (Homo sapiens, UniProt P00533); assay: In vitro EGFR^wt tyrosine kinase ELISA assay
[7] = tested on: A549 cells; assay: Cell apoptosis analysis (Annexin V-FITC/PI, FACS); format: cell-based, human; settings: for numbers of late apoptotic cells compared with control groups / numbers of necrosis cells compared with control groups: 48 h
Description: The process of controlled cellular death known as apoptosis has an important central role not only in normal homeostatic maintenance of tissues, but also in numerous diseases such as cancer, neurodegenerative, autoimmune, and cardiovascular diseases. After treatment by compound 6a for 48 h, the apoptosis of A549 cells were measured by fluorescence-activated cell sorter (FACS) analysis with annexin V-fluorescein isothiocyanate (FITC) and propidium iodide (PI) labelling.
Figure 4. Effect of compound 6a on cell apoptosis in A549 cells. (A) Representative density plots were obtained by FACS, (B) histograms of percentages of apoptotic cells in each group from (A) analysed by GraphPad Prism5.
Following treatment with different concentrations of compound 6a, the apoptosis of A549 cells was measured using Annexin V-FITC/PI apoptosis detection kit (KeyGEN BioTECH, Nanjing, China), according to the manufacturer’s instructions. Apoptosis of the treated cells was then detected by flow cytometry using ACEA NovoCyte.

[8] = A549, MTT, 72 h of treatment, mean ± SD of at least three independent experiments
[9] = NCI-H1975, MTT, 72 h of treatment, mean ± SD of at least three independent experiments
[10] = A-431, MTT, 72 h of treatment, mean ± SD of at least three independent experiments
[11] = SW480, MTT, 72 h of treatment, mean ± SD of at least three independent experiments

Chain of wild type epidermal growth factor receptor tyrosine kinase (EGFR^wt-TK) (P00533 25-1210): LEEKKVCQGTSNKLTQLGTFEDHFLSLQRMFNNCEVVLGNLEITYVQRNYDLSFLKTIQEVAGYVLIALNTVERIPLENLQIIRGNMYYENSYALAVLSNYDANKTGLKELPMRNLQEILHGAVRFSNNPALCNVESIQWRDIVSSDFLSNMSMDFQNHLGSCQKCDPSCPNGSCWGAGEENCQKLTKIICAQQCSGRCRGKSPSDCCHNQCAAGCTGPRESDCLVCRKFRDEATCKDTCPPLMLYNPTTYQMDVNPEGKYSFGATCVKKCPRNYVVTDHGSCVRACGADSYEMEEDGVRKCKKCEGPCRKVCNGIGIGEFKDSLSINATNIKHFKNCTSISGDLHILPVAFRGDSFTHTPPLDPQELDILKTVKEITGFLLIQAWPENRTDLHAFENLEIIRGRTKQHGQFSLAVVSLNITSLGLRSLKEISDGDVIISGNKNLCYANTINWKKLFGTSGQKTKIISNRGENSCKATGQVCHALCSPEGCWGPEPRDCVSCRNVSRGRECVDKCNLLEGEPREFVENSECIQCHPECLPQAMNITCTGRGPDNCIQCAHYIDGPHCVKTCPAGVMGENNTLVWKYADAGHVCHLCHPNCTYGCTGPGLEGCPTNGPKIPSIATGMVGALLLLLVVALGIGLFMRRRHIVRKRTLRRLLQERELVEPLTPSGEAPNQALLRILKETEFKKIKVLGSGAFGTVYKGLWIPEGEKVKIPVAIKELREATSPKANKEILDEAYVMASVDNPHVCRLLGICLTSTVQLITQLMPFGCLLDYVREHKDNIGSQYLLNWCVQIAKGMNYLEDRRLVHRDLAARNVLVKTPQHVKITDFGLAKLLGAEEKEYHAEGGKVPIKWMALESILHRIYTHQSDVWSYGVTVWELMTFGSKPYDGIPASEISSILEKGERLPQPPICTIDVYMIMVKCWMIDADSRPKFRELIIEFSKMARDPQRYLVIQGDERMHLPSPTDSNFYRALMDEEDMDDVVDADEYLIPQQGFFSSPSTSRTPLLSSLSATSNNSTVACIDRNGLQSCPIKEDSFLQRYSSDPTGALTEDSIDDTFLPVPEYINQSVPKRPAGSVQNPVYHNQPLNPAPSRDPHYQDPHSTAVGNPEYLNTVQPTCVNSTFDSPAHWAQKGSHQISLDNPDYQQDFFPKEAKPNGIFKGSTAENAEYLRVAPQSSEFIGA

## C#Cc1cccc(Nc2ncnc3ccc(-c4ccc(CNCCN(CC)CC)o4)cc23)c1 [Compound 6c, 4–(3-ethynylphenylamino)-6-(5-((N,N-diethyl(aminoethyl))aminomethyl)furan-2-yl)quinazoline]
[1]; [8]
  IC50: 12.1 ± 0.37 µM
[2]; [9]
  IC50: 15.6 ± 1.41 µM
other
  melting point: 81.4 to 82.3 °C
[3]; [10]
  IC50: 2.59 ± 0.15 µM
[4]; [11]
  IC50: 10.8 ± 1.34 µM

## CCN(CC)CCNCc1ccc(-c2ccc3ncnc(Nc4ccc(F)c(Cl)c4)c3c2)o1 [Compound 6b, 4–(3-chloro-4-fluorophenylamino)-6-(5-((N,N-diethyl(aminoethyl))aminomethyl)furan-2-yl)quinazoline]
[1]; [8]
  IC50: 18 ± 0.62 µM
[2]; [9]
  IC50: 17.55 ± 0.03 µM
other
  melting point: 98.3 to 99.8 °C
[3]; [10]
  IC50: 3.92 ± 1.1 µM
[4]; [11]
  IC50: 14.9 ± 2.43 µM

## CCN(CC)CCNCc1ccc(-c2ccc3ncnc(Nc4ccc(OCc5cccc(F)c5)c(Cl)c4)c3c2)o1 [Compound 6a, 4–(3-chloro-4-(3-fluorobenzyloxy)phenylamino)-6–(5-((N,N-diethyl(aminoethyl))aminomethyl)furan-2-yl)quinazoline]
[1]; [8]
  IC50: 5.46 ± 0.19 µM
[5]; A549, 2.5 µM, PI
  percentage of cells in G0/G1 phase: 54.15%
[5]; A549, 5 µM, PI
  percentage of cells in G0/G1 phase: 55.44%
[5]; A549, 10 µM, PI
  percentage of cells in G0/G1 phase: 51.77%
[5]; A549, 20 µM, PI
  percentage of cells in G0/G1 phase: 62.45%
[5]; A549, 20, 10, 5 and 2.5 µM
  effect on cell cycle of A549 cells: arrested in the G0/G1 phase
[2]; [9]
  IC50: 9.79 ± 0.07 µM
[6]
  IC50: 0.0156 µM
[7]; A549, 10 µM
  numbers of late apoptotic cells compared with control groups: significantly higher
[7]; A549, 20 µM
  numbers of late apoptotic cells compared with control groups: significantly higher
  numbers of necrosis cells compared with control groups: significantly higher
[7]; A549, 48 h, tested concentrations 20-2.5 µM, versus control
  early apoptosis of A549 cells: not significantly influenced
[3]; [10]
  IC50: 2.21 ± 0.25 µM
[4]; [11]
  IC50: 6.67 ± 0.95 µM

## C/C=C/c1ccc(Nc2ncnc3ccc(-c4ccc(CNCCN(CC)CC)o4)cc23)cc1 [Compound 6d, 6-(5-((N,N-diethylethyl)aminomethyl)furan-2-yl)-4–(4-(E)-(propen-1-yl)phenylamino)quinazoline]
[1]; [8]
  IC50: 4.1 ± 0.66 µM
[2]; [9]
  IC50: 5.13 ± 0.55 µM
other
  melting point: 89.9 to 91.3 °C
[3]; [10]
  IC50: 2.09 ± 1.01 µM
[4]; [11]
  IC50: 4.21 ± 1.16 µM

## CS(=O)(=O)CCNCc1ccc(-c2ccc3ncnc(Nc4ccc(OCc5cccc(F)c5)c(Cl)c4)c3c2)o1 [Lapatinib, reference compound]
[1]; A549, 72 h
  IC50: 14.9 ± 1.21 µM
[5]; A549, 20 µM, PI
  percentage of cells in G2/M phase: 19.41%
  percentage of cells in S phase: 19.93%
[2]; NCI-H1975, 72 h
  IC50: 12.7 ± 0.73 µM
[7]; A549, 20 µM
  numbers of late apoptotic cells compared with control groups: significantly higher
  numbers of necrosis cells compared with control groups: significantly higher
[3]; A-431, 72 h
  IC50: 4.8 ± 0.71 µM
[4]; SW480, 72 h
  IC50: 12.6 ± 1.35 µM
